The record followed here is patent US20110086828A1, “TREATMENT OF ALCOHOL ABUSE AND […] MODULATORS OF NE[…] SITES ON GABAA RECEPTORS” (Board of Supervisors of Louisiana State University and …, priority 2009, published 2011).

In the series the test system is male Long-Evans hooded rats. As to the kind of experiment: two-bottle ethanol preference test (ethanol intake) after i.p. neuroactive steroid. It is filed as in vivo, rat. The settings on record: for effect on ethanol intake (oral self administration of ethanol): summary statement, twenty-two male Long-Evans hooded rats; for ethanol intake vs baseline / volume of ethanol intake vs baseline: 10 and 56 mg/kg i.p. 15 min before 30-min session; for water intake: 10 and 56 mg/kg i.p. The method, then:
Upon arrival, these subjects were housed 4 per cage and provided a diet of standard rodent chow ad libitum (Rodent Diet 5001, PMI Inc., St. Louis, Mo., USA) until postnatal day (hereinafter “PD”) 70. From PD 71 forward, the subjects were housed individually and maintained at 95% of their free-feeding weight during which a saccharin-fading procedure was conducted. Water was provided ad libitum in the home cage except during the experimental sessions. The home cage was made of polypropylene plastic and contained hardwood chip bedding. The colony room was maintained at 21±2 C.° with 50±10% relative humidity on a 14L:10D (light/dark) cycle (lights on 06:00 hours (h); lights off 20:00 h). Following training under the saccharin-fading procedure, the subjects were returned to ad libitum feeding conditions for 73 (minimum) to 89 (maximum) days during which an ethanol concentration-effect curve was established. After this curve was obtained, subjects were maintained at 95% of their free-feeding weight for the rest of the study. Ethanol preference training and experimental sessions were conducted daily during the light cycle between the hours of 12:00 h and 14:00 h. Subjects used in these studies were maintained in accordance with the Institutional Animal Care and Use Committee, Louisiana State University Health Sciences Center, and in compliance with the guidelines of the National Institute of Health Guide for Care and Use of Laboratory Animal Resources (publication No. 85-23, revised 1996).
While still housed 4 per cage, subjects were randomly divided into two groups, a group that received ethanol between PD 35 and 63 (adolescent ethanol group) and a group that received saline during the same postnatal period (adolescent saline group). The adolescent ethanol group (n=11) received 2 g/kg of ethanol intraperitoneally (hereinafter “i.p.”) every other day, whereas the adolescent saline group (n=11) received an equal volume of saline every other day, for a total of 15 injections.
Subjects were trained to consume ethanol orally using a modified saccharin/ethanol fading procedure (Samson, 1986; Leonard et al., 2006) starting on PD 75. Prior to each daily training session, animals were weighed and then returned to their home cage. Water bottles were removed and replaced for 30 min with 50-ml plastic centrifuge tubes containing a saccharin/ethanol solution and fitted with a rubber stopper and metal sipper tube. At the end of the 30-min session, the drinking tubes were removed, water bottles were replaced, and the volume of the solution consumed was determined by weighing the tubes (i.e., [(weight prior to the session—weight after the session)-0.4 ml)]. All solutions were prepared fresh daily. Rats initially received a 0.2% sodium saccharin(weight (g of sodium saccharin)/volume (100 mL solution))/0% ethanol (volume (mL of alcohol)/volume (100 mL solution)) solution that was gradually replaced until a solution of 0% sodium saccharin/10% ethanol was achieved. After a subject acquired stable saccharin/ethanol intake (±20% of the mean for 3 consecutive days) or a maximum of 8 days elapsed, the next sodiumsaccharin/ethanol solution was presented. Solutions were presented in the following order: 0.2% saccharin/0% ethanol, 0.15% saccharin/0.5% ethanol, 0.125% saccharin/1% ethanol, 0.1% saccharin/2% ethanol, 0.05% saccharin/5% ethanol, 0.01% saccharin/8% ethanol, and 0% saccharin/10% ethanol. Training, which took 40-57 sessions, and all subsequent testing were conducted 7 days per week.
After a stable baseline of ethanol drinking was established with a 10% ethanol solution, a concentration-effect curve for ethanol and water consumption was established using the standard two-bottle preference test. During these tests, subjects were allowed simultaneous access to two drinking tubes daily for 60 min in their home cage. […]

For the molecule `CC(=O)[C@H]1CC[C@H]2[C@@H]3CC[C@@H]4C[C@H](O)CC[C@]4(C)[C@H]3CC[C@]12C` [pregnanolone, 5β-pregnan-3α-ol-20-one], the “effect on ethanol intake (oral self administration of ethanol)” value is on record as “no apparent effect on ethanol intake”. Moreover, the “intake of 18% ethanol solution vs vehicle, after stability criterion met” value (10 mg/kg i.p., Holm-Sidak post-hoc, n=22) is given as “significantly differed from vehicle”. Besides, the sedative effects entry (highest dose of pregnanolone) is recorded as “produced sedative effects”. The “intake of 18% ethanol solution, first day of injection, comparison between doses” value (pregnanolone 3.2 mg/kg i.p. vs 1.8, 5.6 and 10 mg/kg, p<0.05) is “significantly higher”. For the same molecule, the “intake of 18% ethanol solution vs vehicle, first day of injection” value (pregnanolone 1-10 mg/kg i.p., 30-min preference session, n=22) is recorded as “none of the effects of dose were different from vehicle”.
Take `CC(=O)OC1CC[C@@]2(C)C(=CC(=O)[C@@H]3[C@@H]2CC[C@]2(C)C(=O)CC[C@@H]32)C1` (some centres unmarked) [7-keto-DHEA, 3-acetyl-7-oxo-dehydroepiandrosterone]: under “18% ethanol”, the “ethanol intake vs baseline” value is given as “dose-dependent decreases” and the “volume of ethanol intake vs baseline” value is recorded as “dose-dependent decreases”. In addition, the water intake result (30-min preference session) is on record as “not significantly different”.
For `C[C@]12CC[C@H](O)CC1=CC[C@@H]1[C@@H]2CC[C@]2(C)C(=O)CC[C@@H]12` [DHEA, 5-androstene-3β-ol-17-one], the “effect on ethanol intake (oral self administration of ethanol)” value was “markedly reduce oral self administration of ethanol”. The ethanol intake volume result (56 mg/kg i.p., every ethanol concentration except the 18% concentration) is listed as “below 1 ml”. For the setting “100 mg/kg i.p. (highest dose), 18% ethanol, p<0.001, n=22”, the “ethanol intake, first day of injection” value is listed as “significant effect”. Moreover, under “10, 32 and 56 mg/kg i.p. with ethanol 3.2-32%, p<0.05”, the “shift of ethanol concentration-effect curve” value is given as “shifted downward significantly”. Besides, the “ethanol intake at varying ethanol concentrations” value (10 and 32 mg/kg i.p., both doses comparable) was “decreased the intake of ethanol concentrations ranging from 3.2 and 18%”. For the same molecule, under “18% ethanol”, the “ethanol intake vs baseline” value is “dose-dependent decreases” and the “volume of ethanol intake vs baseline” value was “dose-dependent decreases”. For the same molecule, the water intake entry (30-min preference session) is recorded as “not significantly different”. Also, the “ethanol intake vs vehicle, after stability criterion met” value (10 to 100 mg/kg i.p., 18% ethanol, p<0.05, n=22) is on record as “significantly decreased intake”.
